Assay: Relaxometric properties: longitudinal relaxivity r1p measurement
Assay type: physicochemical
Conditions: per mM Gd; for r1p at 0.47 T 37° C., human plasma / r1p at 0.47 T 37° C., saline: 0.47 T (20 MHz); for r1p at 0.47 T 37° C., saline / r1p at 1.41 T 37° C., saline: physiologic solution; for r1p at 1.41 T 37° C., human plasma / r1p at 1.41 T 37° C., saline: 1.41 T (60 MHz)
Method: The relaxometric properties of some representative complex compounds according to the invention have been determined at different magnetic field strengths, e.g. including 0.47 and 1.41 T, at 37° C. and in different media (physiologic solution and human plasma) and compared with relaxivity values measured, at the same conditions, for some Gd-Complex of the market having an analogous cyclic coordination cage.
The longitudinal water proton relaxation rate (R1=1/T1) was measured at 0.47 T with a Minispec MQ-20 spectrometer (Bruker Biospin, Germany) operating at a proton Larmor frequency of 20 MHz; MR experiments at 1.41 T were performed using a Minispec MQ-60 spectrometer (Bruker Biospin, Germany) operating at a proton Larmor frequency of 60 MHz.
All test articles were used as supplied and diluted in the selected medium (physiologic solution or human plasma) by weighting the required amount of paramagnetic chelated complex to get a 5 or 10 mM starting solution.
Five different concentration samples (0.1, 0.25, 0.5, 0.75 and 1 mM) for each medium have been prepared by further dilution of the starting 5 or 10 mM solution.
Relaxivity measurements were performed at 0.47 T and 1.41 T at a preset temperature sample of 37° C., kept constant by means of a thermostatic bath connected to the sample holder of the spectrometer. The five sample solutions have been preliminary pre-heated at 37° C. in an external thermostatic bath and then left 10 minutes inside the internal bath to assure the stabilization of the temperature. Longitudinal relaxation time T1 was measured by means of a standard inversion recovery sequence, where the inversion time (TI) was varied from 10 ms to at least 5 times T1 in 15 steps. Statistical analysis (mono-exponential fitting for T1 measurement, linear fitting for the evaluation of longitudinal relaxivity) was performed by Mathematica® (Wolfram, USA). Errors on the estimated parameters were evaluated by the fitting procedure.

Row | r1p at 0.47 T 37° C., human plasma [mM⁻¹ s⁻¹] | r1p at 0.47 T 37° C., saline [mM⁻¹ s⁻¹] | r1p at 1.41 T 37° C., human plasma [mM⁻¹ s⁻¹] | r1p at 1.41 T 37° C., saline [mM⁻¹ s⁻¹] | Structure (SMILES)
1 | 10.6 | 7.3 | 10.2 | 7.5 | O=C(O)CN1CCN(CC(=O)O)CCN(CC(O)CN(CCN(CC(=O)O)CC(O)CN2CCN(CC(=O)O)CCN(CC(=O)O)CCN(CC(=O)O)CC2)CC(=O)O)CCN(CC(=O)O)CC1 (stereo not shown)
2 | 11.5 | 9.3 | 10.8 | 9.4 | O=C(O)CN1CCN(CC(=O)O)CCN(CC(O)CN(CC(O)CN2CCN(CC(=O)O)CCN(CC(=O)O)CCN(CC(=O)O)CC2)CC(O)C(O)C(O)C(O)CO)CCN(CC(=O)O)CC1 (stereo not shown)
3 | 9.7 | 8.3 | 9.2 | 8.5 | O=C(O)CN1CCN(CC(=O)O)CCN(CC(O)CN(CC(=O)O)CC(O)CN2CCN(CC(=O)O)CCN(CC(=O)O)CCN(CC(=O)O)CC2)CCN(CC(=O)O)CC1 (stereo not shown)
4 | 12.0 | 9.0 | 11.3 | 9.3 | O=C(O)CN1CCN(CC(=O)O)CCN(CC(O)CN(CC(O)CN2CCN(CC(=O)O)CCN(CC(=O)O)CCN(CC(=O)O)CC2)CP(=O)(O)O)CCN(CC(=O)O)CC1 (stereo not shown) [Chelate Complex 2]

From US11401262B2, “Dimeric contrast agents” (BRACCO IMAGING S.P.A., priority 2015, dated 2022)
